Test results published in patent US4704393A, “1-substituted 5-fluorouracil useful for inhibiting the aggregation of platelets” (Terumo Kabushiki Kaisha, priority 1983, dated 1987).
Where two headings read alike, the source gives them in different places.

How the values were obtained:
[1] = system: platelet aggregation induced by the arachidonic acid; test: Platelet aggregation inhibition in rabbit PRP, induced by arachidonic acid; format: cell-based; conditions: Oryctolagus cuniculus
Description: (§1) With a syringe containing an aqueous 3.8% sodium citrate solution (one volume), blood (nine volumes) was collected from a rabbit through the carotid artery. For this blood, blood plasma abounding with blood platelets (PRP: 500,000/μ1) was obtained by centrifugal separation. The compound of the present invention was used on the PRP, with arachidonic acid or collagen as a coagulation inducer, to test for plastocytic coagulation depressing function.
as §1, with “From” for “For”, “400,000/μ)” for “500,000/μ1)”, “an aggregation” for “a coagulation”, “platelet aggregation inhibiting” for “plastocytic coagulation depressing”

[2] = in vivo; conditions: mouse, ip
Description: To ICR mice (male, seven weeks old), 1-(9,12,15-octadecatrienoyloxymethyl)-5-fluorouracil, 1-(5,8,11,14,17-eicosapentaenoyloxymethyl)-5-fluorouracil, and 1-(4,7,10,13,16,19-docosahexenoyloxymethyl)-5-fluorouracil were intra-abdominally administered to test for acute toxicity.

[3] = system: platelet aggregation induced by collagen; test: Platelet aggregation inhibition in rabbit PRP, induced by collagen; format: cell-based; conditions: Oryctolagus cuniculus, collagen 25 μg/ml
Description: as §1
as §1, with “From” for “For”, “400,000/μ)” for “500,000/μ1)”, “an aggregation” for “a coagulation”, “platelet aggregation inhibiting” for “plastocytic coagulation depressing”

[4] = system: P388 cells; test: Chemotherapeutic function: life elongation ratio (ILS %) of mice intra-abdominally transplanted with P388 cells; conditions: for toxicity compared with 5-FU in P388-bearing mice: 50 mg/kg/day (Example 1 compound), 70 mg/kg/day (Examples 2 and 3 compounds); for chemotherapeutic function compared with 5-FU: P388 mice, Tables 1 and 2; for ILS (%) / Incremental Life Support ILS (%): intra-abdominal, once daily; for Incremental Life Support ILS (%): five consecutive days
Description: To CDFl mice (males five weeks old), 1×10^6 P388 cells/mouse were intra-abdominally transplanted.
By following the procedure described above, each suspension of 0.5% of 1-(5,8,11,14,17-eicosapentaenoyloxy-meyhyl)-5-fluorouracil of Example 2 and 0.5% of 1-(4,7,10,13,16,19-docosahexenoyloxymethyl)-5-fluorouracil of Example 3 in carboxymethyl celloulose was intra-abdominally administered once daily to other mice of the same description to test for life elongation ratio.

[5] = arachidonic acid 80 μM, rabbit PRP 400,000/μ, read-out: 50% depression concentration (IC50) on platelet aggregation

Row | Compound | IC50 [1, 5] [µM] | LD50 [2] [mg/kg] | IC50 ([3]; rabbit PRP 400,000/μ) [µM] | toxicity compared with 5-FU in P388-bearing mice [4] | chemotherapeutic function compared with 5-FU [4] | ILS (%) ([4]; Table 2, 3 mg/kg/day) | ILS (%) ([4]; Table 2, 10 mg/kg/day) | ILS (%) ([4]; Table 2, 30 mg/kg/day) | ILS (%) ([4]; Table 2, 70 mg/kg/day) | ILS (%) ([4]; Table 2, 100 mg/kg/day) | IC50 ([3]; rabbit PRP 500,000/μl) [µM] | Incremental Life Support ILS (%) ([4]; Table 1, 5 mg/kg/day) | Incremental Life Support ILS (%) ([4]; Table 1, 10 mg/kg/day) | Incremental Life Support ILS (%) ([4]; Table 1, 20 mg/kg/day) | Incremental Life Support ILS (%) ([4]; Table 1, 30 mg/kg/day) | other results
1 | CCC=CCC=CCC=CCC=CCC=CCCCC(=O)OCn1cc(F)c(=O)[nH]c1=O [1-(5,8,11,14,17-eicosapentaenoyloxymethyl)-5-flourouracil] | 120 | > 500 | 710 | less toxic than 5-FU | equal to or better than the function of 5-FU | 18 | 27 | 40 | 36 | 19 |  |  |  |  |  | 
2 | O=c1[nH]cc(F)c(=O)[nH]1 [Example 5-FU, 5-fluorouracil] | > 1000 |  | ≥ 1000 |  |  | 20 | 38 | -8 |  |  | 530 | 35 | 47 | 62 | -17 | inhibition at 1000 µM ([1]; arachidonic acid 70 μM, rabbit PRP 500,000/μl, at 1×10^-3 M): 4%; LD50 ([2]; in vivo): 235 mg/kg; days of survival compared with control group ([4]; 30 mg/kg/day): smaller numbers of days of survival on the mice treatd than the mice of the control group
3 | CC/C=C\C/C=C\C/C=C\CCCCCCCC(=O)OCn1cc(F)c(=O)[nH]c1=O [1-(9,12,15-octadecatrienoyloxymethyl)-5-fluorouracil] |  | > 500 |  | less toxic than 5-FU | equal to or better than the function of 5-FU |  |  |  |  |  | 34 | 23 | 52 | 71 | 64 | IC50 ([1]; arachidonic acid 70 μM, rabbit PRP 500,000/μl, read-out: 50% inhibition concentration (IC50) on platelet aggregation): 640 µM; Incremental Life Support ILS (%) ([4]; Table 1, 50 mg/kg/day): 47%; Incremental Life Support ILS (%) ([4]; Table 1, 100 mg/kg/day): 7%
4 | CCC=CCC=CCC=CCC=CCC=CCC=CCCC(=O)OCn1cc(F)c(=O)[nH]c1=O [1-(4,7,10,13,16,19-docosahexenoyloxymethyl)-5-fluorouracil] | 54 | > 500 | 90 | less toxic than 5-FU | equal to or better than the function of 5-FU | 17 | 34 | 47 | 30 | 22 |  |  |  |  |  | 
